Measurements from patent publication US20030186870A1, “Therapeutic methods and compositions for the treatment of impaired interpersonal and behavioral disorders” (priority 1999, published 2003).
Where no end group is shown, it is not given here.

How the values were obtained:
male Wistar rats = experiment: Irwin test; type: in vivo, rat; conditions: tail vein injection
Description: An Irwin test was performed on 12 male Wistar rats (Iffa Credo, L'Arbresles, France), weighing 260-280 g. They were housed in groups of 4 in a climate controlled room with a 12h light:dark cycle (light 8:00 PM-8:00 AM) and had access to food and water ad libitum. After a seven day acclimatization period, the rats were weighed, identified and randomly assigned to one of the four treatment groups. The drug was injected to the tail vein of the rats according to the group dose.
Observations were performed 15, 30, 60 and 120 minutes after administration. Among the most noticeable results are the results concerning the awareness state of the rats.

male rats = conditions: cited from earlier work

Molecule	aggressiveness (male Wistar rats)	locomotion (male rats; high doses)	anxiolytic-like effect (male rats; low doses)
QHNPR [FG-005, Gln-His-Asn-Pro-Arg]	not associated with an increase of aggressiveness	–	–
CC[C@H](C)[C@@H]1NC(=O)[C@H](Cc2ccc(O)cc2)NC(=O)[C@@H](N)CSSC[C@@H](C(=O)N2CCC[C@H]2C(=O)N[C@@H](CC(C)C)C(=O)NCC(N)=O)NC(=O)[C@H](CC(N)=O)NC(=O)[C@H](CCC(N)=O)NC1=O [oxytocin]	–	decrease locomotion	anxiolytic-like effect
